Experimental data as given in patent US11160807B1, “Methods, compositions and devices for treating cancer with illudofulvenes” (AF Chemicals, LLC, priority 2018, dated 2021).

What was measured:
[1] = test system: 8392B Nontarget Cell Line; assay: two hour toxicity: 2 hr exposure, concentration inhibiting 50% of DNA synthesis activity; assay type: cell-based; conditions: at 26,000 nM ([…] μM)
Description: (§1) In various embodiments of the invention, the MV522 cell line represents a “target” cell line. […] The two hour toxicity data represents the concentration of a given analog for which a two hour exposure will inhibit 50% of the DNA synthesis activity in a given cell line. The 48 hour exposure data represents the concentration at which a given analog with a 48 hour exposure will inhibit the growth or viability in a given cell line as defined by the standard Trypan Blue Exclusion assay.

[2] = test system: c-myc positive daughter line Myc/Rat1A (Myc/ER); assay: role of c-myc in cytotoxicity, c-myc expression induced by 4-hydroxytamoxifen (4HOT); assay type: cell-based; conditions: FIG. 2
Description: The expression of c-myc in this cell line is under the control of a modified receptor that responds to 4-hydroxytamoxifen (4HOT).

[3] = test system: MV522 cell line (a lung-derived adenocarcinoma cell line); assay: tumor regression (FIG. 1); assay type: in vivo; conditions: MV522, FIG. 1
[4] = test system: XP-A, XP-B, XP-C, XP-D, XP-E, XP-F, CS-A, CS-B, ERCC1, ERCC5; assay: DNA damage profile by DNA repair gene; assay type: cell-based; conditions: symbols not defined
[5] = test system: Myeloid leukemias
[6] = test system: Breast carcinomas
[7] = test system: Epidermoid
[8] = test system: Ovarian
[9] = test system: Lung carcinomas
[10] = test system: Prostate carcinomas
[11] = test system: B cell leukemias
[12] = test system: T cell leukemias
[13] = test system: Fibroblasts (normal)
[14] = test system: NIH3T3 MYC+ and NIH3T3 MYC-null; assay: influence of c-myc expression on cytotoxicity, Cell Count (%); conditions: for effect of c-myc (MYC) expression on cellular sensitivity: FIG. 4A-4D, cisplatin data not shown
[15] = test system: Mechanism of Multi-drug Resistance; assay: multidrug resistance: resistance by mechanism of multi-drug resistance
[16] = test system: MV522 Target Cell Line; assay: 48 hour exposure, growth or viability by Trypan Blue Exclusion assay; assay type: cell-based; conditions: MV522, 48 h, read-out: Mean IC50 value, MV522 Target Cell Line, 48 hr exposure
Description: as §1

[17] = test system: MCF7 (ER positive); assay: cytotoxic IC50, 2 hour exposure; conditions: Homo sapiens, MCF7, 2 h, read-out: cytotoxic IC50 values, MCF7 (ER positive)
[18] = test system: NCI DTP 60 cell line panel; assay: NCI DTP 60 Cell Line screen: Growth Inhibition (GI50), Total Growth Inhibition (TGI), Lethal Concentration (LC50/LD); assay type: cell-based, human; conditions: mean over NCI DTP 60 cell line panel; for Mean LD50 cytotoxic: lethal concentration dose (cytotoxic effect); for GI50: growth inhibition; for Mean TGI cytostatic: total growth inhibition (cytostatic effect)
Description: In particular, an algorithm based on the obtained in vitro cell culture values (i.e. growth inhibition values (GI50), or the total growth inhibition (TGI), or the lethal concentration (LC50)) of cell lines (e.g., NCI60 cells) subjected to treatment with an illudofulvene, and gene expression is determined in these same cell lines (e.g., by microarray analysis, reverse transcriptase polymerase chain reaction (RT-PCR), quantitative real-time PCR (qPCR), or next generation sequencing). After normalization, genes with, e.g., a Pearson correlation coefficient greater than about 0.5 or below about −0.5 to one of the obtained in vitro cell culture values, can be classified as biomarkers of sensitivity or resistance, respectively. A probability or significance value can also be calculated for the correlation between the obtained in vitro cell culture values (i.e. growth inhibition values (GI50), or the total growth inhibition (TGI), or the lethal concentration (LC50)) and the normalized expression of a specific gene.
One can determine the growth inhibition (GI50), total growth inhibition (TGI), or lethal concentration (LC50) for a drug for each of the cell lines in the NCI DTP 60 cell line panel. One can use these 3 values to search for correlations against all gene expressions in all cell lines using the NCI's publicly available CELL MINER Software. Alternatively, one can down load for a specific gene its relative expression in each of the 60 cell lines using the NCI's publicly available COMPARE Software, and performs the expression for a specific gene.

## CC1=C(CO)C2=C(C)C3(CC3)[C@@](C)(O)C(=O)C2=C1 [Analog 002]
[1]
  inhibitory effect on the nontarget 8392B cell line: no inhibitory effect
[2]
  sensitivity on expression of c-myc in the presence of 4HOT: become sensitive
[3]
  tumor regression: induce tumor regression
[4]; Gene XP-C
  DNA damage profile: 0
[4]; Gene XP-E
  DNA damage profile: 0
[5]
  Cytotoxicity? 2 hr incubation: Yes
  Cytotoxicity? 48 hr incubation: Yes
[6]
  Cytotoxicity? 2 hr incubation: Yes
  Cytotoxicity? 48 hr incubation: Yes
[7]
  Cytotoxicity? 2 hr incubation: Yes
  Cytotoxicity? 48 hr incubation: Yes
[8]
  Cytotoxicity? 2 hr incubation: Yes
  Cytotoxicity? 48 hr incubation: Yes
[9]
  Cytotoxicity? 2 hr incubation: Yes
  Cytotoxicity? 48 hr incubation: Yes
[10]
  Cytotoxicity? 2 hr incubation: Yes
  Cytotoxicity? 48 hr incubation: Yes
[11]
  Cytotoxicity? 2 hr incubation: No
  Cytotoxicity? 48 hr incubation: Yes
[12]
  Cytotoxicity? 2 hr incubation: No
  Cytotoxicity? 48 hr incubation: Yes
[13]
  Cytotoxicity? 2 hr incubation: No
  Cytotoxicity? 48 hr incubation: Yes
[14]
  effect of c-myc (MYC) expression on cellular sensitivity: become sensitive
[14]; NIH3T3 MYC+ compared to parental c-myc null NIH3T3, based on decrease in cell count, FIG. 3
  increase in sensitivity conferred by expression of cellular c-myc: greater than 10 fold
[15]; Mechanism: BRCA status
  Resistance to Analog 001/Analog 002: No
[15]; Mechanism: Bcl-2 expression
  Resistance to Analog 001/Analog 002: No
[15]; Mechanism: DNA repair
  Resistance to Analog 001/Analog 002: No
[15]; Mechanism: Gp170/MDR1
  Resistance to Analog 001/Analog 002: No
[15]; Mechanism: Gp180/MRP
  Resistance to Analog 001/Analog 002: No
[15]; Mechanism: MGMT expression
  Resistance to Analog 001/Analog 002: No
[15]; Mechanism: MVP/LRP (vault)
  Resistance to Analog 001/Analog 002: No
[15]; Mechanism: Microtubulin alteration
  Resistance to Analog 001/Analog 002: No
[15]; Mechanism: Myc expression
  Resistance to Analog 001/Analog 002: No
[15]; Mechanism: P21 status
  Resistance to Analog 001/Analog 002: No
[15]; Mechanism: P53 status
  Resistance to Analog 001/Analog 002: No
[15]; Mechanism: Thiol content/GST pi
  Resistance to Analog 001/Analog 002: No
[15]; Mechanism: Topoisomerase I
  Resistance to Analog 001/Analog 002: No
[15]; Mechanism: Topoisomerase II
  Resistance to Analog 001/Analog 002: No
[15]; multi-medicant resistance phenotype, Bcl-2 over expression, p53 and p21/WAF1 mutations
  dependence of activity on common resistance mechanisms: independent

## CC1=C(COCCO)C2=C(C)C3(CC3)[C@@](C)(O)C(=O)C2=C1 [Analog 022]
[16]
  IC50: 680 ± 180 nM

## CC1=C(CCC(=O)Oc2ccc3c(c2)CCC2C3CC[C@]3(C)C(O)CCC23)C2=C(C)C3(CC3)[C@@](C)(O)C(=O)C2=C1 (stereo partly shown) [Analog 108]
[17]
  IC50: 14100 ± 2800 nM

## CC1=C2C(=CC(C)(C)[C@@H]2O)C(=O)[C@](C)(O)C12CC2 [Illudin M, illudin M, reference compound]
[18]
  Mean LD50 cytotoxic: 291 nM

## CCOCC1=C(C)C=C2C(=O)[C@](C)(O)C3(CC3)C(C)=C21 [Illudofulvene Analog 0016]
[18]
  GI50: 102 nM
  Mean LD50 cytotoxic: 4,270 nM
  Mean TGI cytostatic: 1,070 nM

## COC(=O)C1=C(C(=O)OC)C23C=C(C)C1C2=C(C)C1(CC1)[C@@](C)(O)C3=O (stereo partly shown) [Illudofulvene Analog 0142]
[18]
  GI50: 447 nM
  Mean LD50 cytotoxic: 53,700 nM
  Mean TGI cytostatic: 4,667 nM

## CC(=O)OCC1(C)C=C2C(=O)[C@](C)(O)C3(CC3)C(C)=C2C1O (stereo partly shown) [Illudofulvene Analog 0159]
[18]
  GI50: 117 nM
  Mean LD50 cytotoxic: 14,790 nM
  Mean TGI cytostatic: 2,090 nM

## CC[C@H](C)[C@H](NC(=O)[C@H]1CCCCN1C)C(=O)N(COC(=O)CC(C)C)[C@H](C[C@@H](OC(C)=O)c1nc(C(=O)N[C@@H](Cc2ccc(O)cc2)C[C@H](C)C(=O)O)cs1)C(C)C [Tubulysin A]
[18]
  Mean LD50 cytotoxic: >10,000 nM

## N.N.[Cl][Pt][Cl] [cisplatin]
[14]
  effect of c-myc (MYC) expression on cellular sensitivity: did not alter cellular sensitivity

## CO[C@@]12[C@H](COC(N)=O)C3=C(C(=O)C(C)=C(N)C3=O)N1C[C@@H]1N[C@@H]12 [mitomycin C]
[14]
  effect of c-myc (MYC) expression on cellular sensitivity: did not alter cellular sensitivity
[14]; listed as Mitomycin C
  effect of c-myc (MYC) expression on cellular sensitivity: not sensitive

## CC[C@@]1(O)C(=O)OCc2c1cc1n(c2=O)Cc2cc3c(CN(C)C)c(O)ccc3nc2-1 [topotecan]
[14]
  effect of c-myc (MYC) expression on cellular sensitivity: did not alter cellular sensitivity
[14]; listed as Topotecan
  effect of c-myc (MYC) expression on cellular sensitivity: not sensitive
